The METLIN SMRT retention time set (Domingo-Almenara et al. 2019)

Experiment: gradient 5% acetonitrile 3 min, to 50% in 2 min, to 85% in 15 min, held 3 min, 100 µL/min
Conditions: column: Zorbax Extend-C18 2.1 x 50 mm; eluents: water / acetonitrile, 0.1% formic acid
In short: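 Standards, all pure, were combined into mixtures of ~100 molecules and run at 100 μL/min on a Zorbax Extend-C18 column (2.1 × 50 mm, 1.8 μm) with water and acetonitrile, each containing 0.1% formic acid. A coupled quadrupole time-of-flight mass spectrometer operated in positive and negative ionization mode. Retention time values come from computationally picked adduct peaks, each inspected manually.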

| RP-LC retention time | Compound |
| --- | --- |
| 852 s | O=C(Nc1ccc2c(c1)N(S(=O)(=O)c1ccc(F)cc1)CCC2)C1CC1 |
| 743 s | COc1ccc(-c2nc3ncccn3c2Nc2cccc(C)c2)cc1 |
| 641 s | CC(=O)Nc1ccc(C(=O)NC2CCN(c3cc(-c4cccs4)[nH]n3)C2)cc1 (stereo unspecified) |
| 714 s | O=S(=O)(c1ccc2c(c1)CCC2)N1CCCn2nc(-c3cccnc3)cc2C1 |
| 849 s | CS(=O)(=O)N1CCCc2ccc(NS(=O)(=O)c3ccc(Cl)s3)cc21 |
| 571 s | CN1CCN(C(=O)CCCN2C(=O)CCn3nc(-c4cn(C)c5ccccc45)cc32)CC1 |
| 1370 s | COc1ccc(-n2c(=O)c(C(=O)Nc3cccc(Cl)c3)c(O)c3cccnc32)cc1 |
| 1040 s | Cc1cc(NC(=O)CCc2nc(CSc3nnc(-c4ccccc4)o3)no2)ccc1Br |
| 748 s | CCCCNC(=O)C1CCN(C(=O)CCc2c(C)[nH]c(C(=O)OCC)c2C)CC1 |
| 881 s | O=C(CSc1nnc2c3cc(-c4ccc(F)cc4)nn3ccn12)Nc1ccccc1F |
| 560 s | CCOc1ccc(CN2C[C@@H](COC)[C@H](c3ccncc3)C2)cc1OC |
| 904 s | Cn1cccc1C(=O)C(=O)N1CCN(c2ccc(Cl)cc2)CC1 |
| 932 s | COc1cccc(-n2c(N3CCCC(C(=O)Nc4ccc(F)cc4)C3)nc3ccsc3c2=O)c1 (stereo unspecified) |
| 601 s | CCn1ncc(CN2CCC[C@H]2c2nc(-c3ccccc3)n[nH]2)c1C |
| 726 s | COc1nccnc1N1CCC(NC(=O)COc2ccc(F)cc2)C1 (stereo unspecified) |
| 698 s | CCCNC(=O)C1CCCN(c2ccc(SCC(=O)Nc3cc(F)ccc3F)nn2)C1 (stereo unspecified) |
| 697 s | O=C(CCCNC(=O)c1cc(-c2cccs2)[nH]n1)Nc1cccc2cccnc12 |
| 934 s | CCCS(=O)(=O)N1CCCN(C2=NS(=O)(=O)C(c3ccc(Cl)cc3)=C2C)CC1 |
| 913 s | Cc1oc(C2CCN(S(=O)(=O)c3cccc(F)c3)CC2)nc1C(=O)N1CCCC1 |
| 727 s | N#Cc1ccc(NC(=O)C2Oc3ccccc3NC2=O)cc1 (stereo unspecified) |
| 1060 s | Cc1ccccc1Cn1nc2ccc(S(=O)(=O)N3CCC(C)CC3)cn2c1=O |
| 828 s | O=C(Nc1cnc(N2CCOCC2)nc1)c1cccc(Br)c1 |

| RP-LC retention time | Compound |
| --- | --- |
| 662 s | CCc1ccc2c(c1)-c1ccccc1S(=O)(=O)N2CC(=O)N1CCN(C)CC1 |
| 1160 s | COc1cc(OC)cc(-c2nc(-c3cccc(-c4ccnn4C)c3)no2)c1 |
| 753 s | Cc1cc(C)n2nc(SCC(=O)Nc3ccccc3C(F)(F)F)nc2n1 |
| 824 s | O=C(NC1CCCC1)c1nc(Nc2ccc(F)cc2)c2ccccc2n1 |
| 746 s | C=CCNC(=O)c1sc(Nc2ccc(Cl)cn2)nc1C |
| 594 s | CCCN(C)c1nccnc1OC1CCN(Cc2cccnc2)C1 (stereo unspecified) |
| 1080 s | CCc1ccc(-n2cc(C(=O)OCC(=O)OC)c3ccccc3c2=O)cc1 |
| 702 s | CCn1cc(C)c(C(=O)O)c1CC(=O)NCc1ccco1 |
| 726 s | O=C(NC1CCN(c2cc(-c3cccs3)[nH]n2)C1)c1ccc(F)cc1Cl (stereo unspecified) |
| 782 s | O=C(Nc1cccc(-c2ccc(N3CCOCC3)nn2)c1)Nc1cccc(C(F)(F)F)c1 |
| 884 s | CCn1nccc1-c1cccc(-c2noc(CNS(=O)(=O)c3ccccc3)n2)c1 |
| 740 s | CCOC(=O)c1c(S(=O)(=O)N2CCC(C(=O)NCc3ccco3)CC2)c(C)n(C)c1C |
| 1000 s | CCOc1ccc(NC(=O)C2(C)Oc3cccnc3N(C(C)C)C2=O)cc1 (stereo unspecified) |
| 758 s | Cc1cc(=O)n(CC(=O)Nc2ccc(Cl)cc2)c(N2CCC(C)CC2)n1 |
| 878 s | O=C(c1ccc(Br)o1)N1CCN(c2ccc(=O)n(-c3ccc(Cl)cc3)n2)CC1 |
| 1040 s | CSc1ccc(-c2noc(Cn3c(=O)n(-c4ccccc4F)c(=O)c4sccc43)n2)cc1 |
| 1060 s | Cc1ccccc1S(=O)(=O)N1CCC(CCC(=O)N2CCc3ccccc3C2)CC1 |
| 645 s | CCCN1C(=O)COc2cc(-c3noc(C(=O)NCC4CCCN4CC)n3)ccc21 (stereo unspecified) |
| 985 s | O=C(Nc1cc(F)ccc1F)N1CCc2nc(-c3ccc(F)cc3)ncc2C1 |
| 607 s | COc1ccc(C(CNC(=O)c2cc(=O)c3ccccc3o2)N(C)C)cc1 (stereo unspecified) |
| 880 s | Cc1cccc(CNC(=O)CC2CCN(C(=O)c3[nH]c(C)c(C(=O)OC(C)C)c3C)CC2)c1 |
| 549 s | NCC(O)COCC1COc2ccccc2O1 (stereo unspecified) |

| RP-LC retention time | Compound |
| --- | --- |
| 661 s | CCN1C(=O)NC(c2ccccc2C(F)(F)F)C2=C1CN(CCC(=O)NCC(C)C)C2=O (stereo unspecified) |
| 816 s | Cn1c(=O)c(N2CCC(NC(=O)NCc3cccc(F)c3)CC2)nc2ccccc21 |
| 860 s | COc1cc(NC(=O)c2cn(-c3cc(N4CCCC4)ncn3)cn2)cc(OC)c1 |
| 881 s | Cc1cc(-c2nnc(-c3ccco3)o2)c(C)n1CC(=O)NCc1ccc(F)cc1Cl |
| 694 s | CCc1ccc(C(=O)NCCc2nc3cccnc3n2CC)cc1 |
| 837 s | Cc1cc(C)cc(NC(=O)Cn2c(=O)c3cc(C4CC4)nn3c3ncccc32)c1 |
| 528 s | O=C(NCc1cccs1)C1CCN(c2nnc3ccccn23)CC1 |
| 728 s | COc1ccc(CN2C[C@@H]3C(=O)N(CCc4ccccc4)C(=O)[C@@H]3C2)c(OC)c1 |
| 574 s | Cc1[nH]c(=O)[nH]c(=O)c1CC(=O)NCCc1cccs1 |
| 700 s | Cc1ccc(C)c(CS(=O)(=O)N2CCC(CN3CCCCCC3)CC2)c1 |
| 571 s | CC(C)COc1cc(=O)n2c(c1C(=O)NC1CCN(C)CC1)CCCCC2 |
| 1420 s | CCOc1nc2ccccc2nc1N1CCCC(C(=O)Nc2ccc(Br)c(C)c2)C1 (stereo unspecified) |
| 941 s | COc1ccc(S(=O)(=O)N2CCCC(C(=O)Nc3ccc4c(c3)OCO4)C2)cc1Cl (stereo unspecified) |
| 652 s | COc1ccc2c(c1)CC(NC(=O)N1CCN(Cc3ccc4c(c3)OCO4)CC1)CO2 (stereo unspecified) |
| 872 s | COc1cccc(-c2noc(Cn3ccn(-c4c(C)cccc4C)c(=O)c3=O)n2)c1 |
| 740 s | Cc1noc(-c2nn(C)c3c2CN(C(=O)COc2ccc(F)cc2)CC3)n1 |
| 666 s | CCn1cnc(S(=O)(=O)N2CCC(C(=O)Nc3ccc(OC)cc3)CC2)c1 |
| 799 s | O=C(NCc1ccc2c(c1)OCO2)C1CC(=O)N(CCc2c[nH]c3ccc(Cl)cc23)C1 (stereo unspecified) |
| 700 s | O=C(CCCS(=O)(=O)Cc1ccccc1)Nc1ccc2c(c1)OCCO2 |
| 726 s | CCCC(=O)Nc1ccc2c(c1)CN(C(=O)c1cc(F)ccc1Cl)C(C(=O)N(C)C)C2 (stereo unspecified) |
| 742 s | Cc1cccc(CNC(=O)c2ccc3c(c2)CC(=O)N3C)c1 |

| Compound | RP-LC retention time |
| --- | --- |
| COc1ccc(C(=O)N2CCC3(C2)C(=O)Nc2ccc(OC)cc23)cc1 (stereo unspecified) | 683 s |
